Test results published in patent publication US20250257059A1, “PROTEIN TYROSINE PHOSPHATASE INHIBITORS AND USES THEREOF” (Nerio Therapeutics, Inc., priority 2022, published 2025).

Key:
[1] = tested on: murine B16F10 melanoma cell line; test: B16F10 IFNγ-induced cellular growth inhibition assay (xCELLigence RTCA); format: cell-based; details: Mus musculus, B16-F10, 48 h, B16F10 cells, 1 ng/mL mouse IFNγ, AUC of growth curve, read-out: B16 IFNγ Mediated Growth Inhibition Assay: AVG IC50
Description: Compound activity was determined using an interferon gamma (IFNγ)-induced cellular growth inhibition assay with the murine B16F10 melanoma cell line on an Agilent xCELLigence Real-Time Cell Analysis platform (RTCA). RTCA E-Plate View 96 plates (Agilent, 300601010) were pre-equilibrated with 50 μL of assay media (DMEM+10% FBS, Gibco 10566-024, Gibco 10082-147) at 37° C. in a humidified incubator before taking an initial measurement of impedance (sweep). B16F10 cells cultured in assay media were dissociated with TrypLE Express (Gibco 12605-010) for five minutes at 37° C., diluted in 3 volumes of assay buffer, centrifuged for 5 minutes at 500×g at room temperature before diluting cells to 7,700 cells/mL in assay media, plating 130 μL/well (1,000 cells/well) in the inner 60 wells of the assay plate, and adding 150 μL of assay media to the outer wells of the plate. Cells were incubated at room temperature for 20 min to allow cells to settle before placing them in the xCELLigence reader and incubating overnight at 37° C., sweeping wells every 15 minutes. After 24 hours, well readings were paused, plates were removed from the incubator and compounds were added using a Tecan D300e dispenser. All wells were normalized to a final concentration of 0.5% DMSO. Following a 30 min incubation at 37° C., recombinant mouse IFNγ (R&D Systems™ 485MI100) was diluted to 10 ng/mL in assay media and 20 μL was added to assay wells (1 ng/mL final concentration). Assay plates were placed in the xCELLigence reader and swept every 15 minutes.

[2] = target: full-length human PTPN2 (TC45) (1-387) (Homo sapiens (Human), UniProt P17706); test: Enzymatic assay used to determine potency of PTPN2 inhibitors (full length PTPN2 DiFMUP assay); format: biochemical; details: 0.5 nM PTPN2, 100 μM DiFMUP, 30 min at room temperature
Description: Compound activity was determined in an in vitro enzymatic assay using untagged, full-length human PTPN2 (TC45) (1-387) protein. PTPN2 was produced in E. coli as a GST-TEV fusion and the GST was removed by TEV digestion, followed by additional purification to yield full-length PTPN2 (SEQ ID 1). PTPN2 enzyme was diluted in assay buffer (50 mM HEPES pH7.5, 0.2 mM EDTA, 1 mM DTT, 0.02% Brij-35, 0.02% BSA) to a final concentration of 0.5 nM and added to black 384-well non-binding plates (Greiner, 781900). Compounds were subsequently added using a Tecan D300e dispenser. Following a 10 min incubation at room temperature, DiFMUP substrate (ThermoFisher, D22065) was added to a final concentration of 100 μM. Plates were transferred to a SpectraMax plate reader (Molecular Devices) and fluorescence intensity was measured (ex 358, em 455) after a 30 min incubation at room temperature. […] A four-parameter curve fit was used to determine IC50 values from % inhibition data.

Chain of full-length human PTPN2 (TC45) (1-387) (P17706 other isoform, or with tags, fused parts or gaps): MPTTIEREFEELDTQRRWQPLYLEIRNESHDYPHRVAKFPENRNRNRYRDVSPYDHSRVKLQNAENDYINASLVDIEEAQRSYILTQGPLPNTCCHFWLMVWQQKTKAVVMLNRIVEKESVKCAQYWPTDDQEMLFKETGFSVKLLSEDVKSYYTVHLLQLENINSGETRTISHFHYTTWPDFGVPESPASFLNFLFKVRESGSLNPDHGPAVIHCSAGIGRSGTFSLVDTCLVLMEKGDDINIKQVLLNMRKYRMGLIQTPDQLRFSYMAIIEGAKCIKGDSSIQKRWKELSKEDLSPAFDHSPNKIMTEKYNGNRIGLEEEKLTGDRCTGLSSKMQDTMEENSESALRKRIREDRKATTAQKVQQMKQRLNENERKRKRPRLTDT

## CCC1CN(CCc2cc(O)c(N3CC(=O)NS3(=O)=O)c(F)c2)C1 [Example 126]
[1]
  IC50: 775 nM
[2]
  IC50: 3 nM

## CCCC1CNCC1Cc1cc(O)c(N2CC(=O)NS2(=O)=O)c(F)c1 (stereo not shown) [Example 29]
[1]
  IC50: > 62000 nM
[2]
  IC50: 13 nM

## O=C1CN(c2c(O)cc(CC3CCCN(CCC4CCOCC4)C3)cc2F)S(=O)(=O)N1 (stereo not shown) [Example 40]
[1]
  IC50: 38600 nM
[2]
  IC50: 46 nM

## CCN1CCCC(Cc2cc(O)c(N3CC(=O)NS3(=O)=O)c(F)c2)C1 (stereo not shown) [Example 51]
[1]
  IC50: 27600 nM
[2]
  IC50: 63 nM

## CC(C)N1CCC(Cc2cc(O)c(N3CC(=O)NS3(=O)=O)c(F)c2)C1 (stereo not shown) [Example 2]
[1]
  IC50: 28200 nM
[2]
  IC50: 14 nM

## O=C1CN(c2c(O)cc(CCN3CCNCC3)cc2F)S(=O)(=O)N1 [Example 100]
[1]
  IC50: 51000 nM
[2]
  IC50: 5 nM

## O=C1CN(c2c(O)cc(CCN3CCC(O)C3)cc2F)S(=O)(=O)N1 (stereo not shown) [Example 103]
[1]
  IC50: 13200 nM
[2]
  IC50: 50 nM

## O=C1CN(c2c(O)cc(CCN3CCC(O)CC3)cc2F)S(=O)(=O)N1 [Example 101]
[1]
  IC50: 1690 nM
[2]
  IC50: 2 nM

## O=C1CN(c2c(O)cc(CC3CCN(Cc4cnco4)C3)cc2F)S(=O)(=O)N1 (stereo not shown) [Example 4]
[1]
  IC50: > 100000 nM
[2]
  IC50: 14 nM

## O=C1CN(c2c(O)cc(CCN3CCC(C4CCC4)CC3)cc2F)S(=O)(=O)N1 [Example 121]
[1]
  IC50: 2830 nM
[2]
  IC50: 2 nM

## CC(C)CCN1CCCC[C@H]1Cc1ccc(O)c(N2CC(=O)NS2(=O)=O)c1F (single isomer, unassigned) [Example 82]
[1]
  IC50: 36300 nM
[2]
  IC50: 76 nM

## O=C1CN(c2c(O)cc(CCN3CCC4(CC4)C3)cc2F)S(=O)(=O)N1 [Example 131]
[1]
  IC50: 489 nM
[2]
  IC50: 1 nM

## O=C1CN(c2c(O)cc(CC3CCN(Cc4ncc[nH]4)C3)cc2F)S(=O)(=O)N1 (stereo not shown) [Example 17]
[1]
  IC50: > 52000 nM
[2]
  IC50: 7 nM

## O=C1CN(c2c(O)cc(CC3CCCN(Cc4cnco4)C3)cc2F)S(=O)(=O)N1 (stereo not shown) [Example 48]
[1]
  IC50: > 33000 nM
[2]
  IC50: 223 nM

## CN(C)CCN1CCC(Cc2cc(O)c(N3CC(=O)NS3(=O)=O)c(F)c2)C1 (stereo not shown) [Example 3]
[1]
  IC50: > 100000 nM
[2]
  IC50: 3 nM

## CCCC1CCN(CCc2cc(O)c(N3CC(=O)NS3(=O)=O)c(F)c2)C1 (stereo not shown) [Example 86]
[1]
  IC50: 651 nM
[2]
  IC50: 4 nM

## O=C1CN(c2c(O)cc(CC3CCN(CC4CCCO4)C3)cc2F)S(=O)(=O)N1 (stereo not shown) [Example 14]
[1]
  IC50: 52800 nM
[2]
  IC50: 14 nM

## O=C1CN(c2c(O)cc(CC3CCCN(Cc4ccco4)C3)cc2F)S(=O)(=O)N1 (stereo not shown) [Example 46]
[1]
  IC50: > 100000 nM
[2]
  IC50: 75 nM

## CCC1CNCC1Cc1cc(O)c(N2CC(=O)NS2(=O)=O)c(F)c1 (stereo not shown) [Example 30]
[1]
  IC50: > 13000 nM
[2]
  IC50: 13 nM

## O=C1CN(c2c(O)cc(CC3CCCN(Cc4cc[nH]c4)C3)cc2F)S(=O)(=O)N1 (stereo not shown) [Example 39]
[1]
  IC50: > 100000 nM
[2]
  IC50: 63 nM

## O=C1CN(c2c(O)cc(CC3CCNC3)cc2F)S(=O)(=O)N1 (stereo not shown) [Example 27]
[1]
  IC50: 9730 nM
[2]
  IC50: 7 nM

## CCCC1CCN(Cc2cc(O)c(N3CC(=O)NS3(=O)=O)c(F)c2)C1 (stereo not shown) [Example 71]
[1]
  IC50: 19300 nM
[2]
  IC50: 65 nM

## CC(C)CC1CCN(Cc2cc(O)c(N3CC(=O)NS3(=O)=O)c(F)c2)C1 (stereo not shown) [Example 72]
[1]
  IC50: 8440 nM
[2]
  IC50: 66 nM

## O=C1CN(c2c(O)cc(CC3CCN(Cc4ccn[nH]4)C3)cc2F)S(=O)(=O)N1 (stereo not shown) [Example 18]
[1]
  IC50: > 58000 nM
[2]
  IC50: 7 nM

## O=C1CN(c2c(O)cc(CCN3CCC4(CCC4)C3)cc2F)S(=O)(=O)N1 [Example 99]
[1]
  IC50: 183 nM
[2]
  IC50: 2 nM

## CC(C)(C)C1CCN(CCc2cc(O)c(N3CC(=O)NS3(=O)=O)c(F)c2)CC1 [Example 118]
[1]
  IC50: 3220 nM
[2]
  IC50: 3 nM
